Assay results taken from patent publication US20030187056A1, “Live cell procedures to identify to identify compounds modulating intracellular distribution of phosphodiesterase( pde) enzymes” (priority 2000, published 2003).
Like-named read-outs stand apart in the source and are kept apart here.

How the values were obtained:
HSPDE4A4-EGFP = molecular target: T1, HSPDE4A4-EGFP (Homo sapiens, UniProt P27815); assay: Dispersal of preformed Rolipram-induced spots, HSPDE4A4-EGFP CHO cells; format: cell-based; settings: yes/no
T1 construct: expressed in transfected cells
T1 sequence (P27815 whole entry): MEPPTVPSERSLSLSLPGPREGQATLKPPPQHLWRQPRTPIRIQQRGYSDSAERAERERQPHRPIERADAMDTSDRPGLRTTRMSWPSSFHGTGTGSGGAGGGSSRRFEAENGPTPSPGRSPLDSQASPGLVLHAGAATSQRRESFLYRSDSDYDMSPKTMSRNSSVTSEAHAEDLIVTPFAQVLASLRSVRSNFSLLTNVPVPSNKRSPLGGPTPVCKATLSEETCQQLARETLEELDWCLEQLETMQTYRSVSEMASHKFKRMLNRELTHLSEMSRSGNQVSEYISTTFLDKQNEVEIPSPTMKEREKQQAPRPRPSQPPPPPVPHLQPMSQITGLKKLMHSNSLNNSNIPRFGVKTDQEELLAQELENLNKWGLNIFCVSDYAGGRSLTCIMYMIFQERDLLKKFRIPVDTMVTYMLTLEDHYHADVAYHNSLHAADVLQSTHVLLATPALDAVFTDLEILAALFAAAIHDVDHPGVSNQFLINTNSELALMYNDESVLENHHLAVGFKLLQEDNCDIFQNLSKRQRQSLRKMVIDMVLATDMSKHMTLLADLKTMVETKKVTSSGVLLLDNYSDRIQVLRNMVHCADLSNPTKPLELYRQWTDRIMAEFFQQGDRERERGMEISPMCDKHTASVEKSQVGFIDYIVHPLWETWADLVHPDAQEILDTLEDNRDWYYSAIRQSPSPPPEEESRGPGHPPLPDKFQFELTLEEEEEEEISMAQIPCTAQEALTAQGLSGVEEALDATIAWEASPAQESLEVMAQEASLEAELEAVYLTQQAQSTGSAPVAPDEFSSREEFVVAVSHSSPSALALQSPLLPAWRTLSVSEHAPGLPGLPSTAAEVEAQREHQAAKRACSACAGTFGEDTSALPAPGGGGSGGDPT

PDE4 [1] = settings: cited from earlier work
PDE4 [2] = system: T2, PDE4; settings: Saldou et al., 1998; read-out: IC50 against PDE4; cited from earlier work
T2 construct: other: Saldou et al., 1998; Such an enzyme preparation may be obtained from cells transfected with and expressing the PDE4 enzyme chosen

PDE4A probes = assay: Redistribution of the PDE4A probes (summary); format: cell-based; settings: compound alone
HSPDE4A4catD-EGFP = molecular target: T3, HSPDE4A4catD-EGFP (Homo sapiens, UniProt P27815+Q08499); format: cell-based
T3 construct: the 3′-end catalytic region of HSPDE4D isoforms (nucleotides 700-2019 of HSPDE4D3 cDNA); HSPDE4A4 N-terminal fragment (nucleotides 1-1023 of L20965); expressed in transfected cells
T3 sequence (P27815+Q08499 fused with the stated changes, form open): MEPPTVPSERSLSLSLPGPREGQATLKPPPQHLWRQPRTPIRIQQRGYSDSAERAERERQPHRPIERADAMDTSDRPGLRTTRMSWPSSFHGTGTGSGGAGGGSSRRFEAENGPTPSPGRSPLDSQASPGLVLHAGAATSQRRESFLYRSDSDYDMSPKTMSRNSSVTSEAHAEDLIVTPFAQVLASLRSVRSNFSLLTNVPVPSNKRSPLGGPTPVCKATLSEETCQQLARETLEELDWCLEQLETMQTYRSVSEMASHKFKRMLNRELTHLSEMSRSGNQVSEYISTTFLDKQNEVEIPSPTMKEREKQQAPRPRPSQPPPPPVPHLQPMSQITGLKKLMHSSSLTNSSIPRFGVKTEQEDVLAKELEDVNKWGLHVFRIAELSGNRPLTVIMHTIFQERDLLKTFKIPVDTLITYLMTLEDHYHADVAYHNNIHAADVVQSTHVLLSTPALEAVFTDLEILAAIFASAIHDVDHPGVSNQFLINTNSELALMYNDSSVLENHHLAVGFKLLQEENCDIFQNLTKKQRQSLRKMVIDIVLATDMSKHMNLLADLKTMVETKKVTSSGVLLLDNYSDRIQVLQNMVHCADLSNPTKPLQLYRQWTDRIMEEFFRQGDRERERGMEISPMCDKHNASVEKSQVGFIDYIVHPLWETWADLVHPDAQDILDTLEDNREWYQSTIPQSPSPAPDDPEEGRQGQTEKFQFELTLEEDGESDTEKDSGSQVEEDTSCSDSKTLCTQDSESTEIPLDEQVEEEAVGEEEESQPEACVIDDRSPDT
Excerpt: Transiently transfected or stably transfected (non-clonal) cells are allowed to adhere to chambered coverglasses in HAM's F12 medium containing 10% FBS.

HSPDE4A1-EGFP = molecular target: T4, HSPDE4A1-EGFP (Homo sapiens, UniProt P27815); assay: Spot dispersal in CHO cells transfected with HSPDE4A1-EGFP; format: cell-based
T4 construct: the ca. 1.95 kb coding region of HSPDE4A1 (GenBank Acc.no. U97584) is amplified; expressed in transfected cells
T4 sequence (P27815 1-647 isoform P27815-4): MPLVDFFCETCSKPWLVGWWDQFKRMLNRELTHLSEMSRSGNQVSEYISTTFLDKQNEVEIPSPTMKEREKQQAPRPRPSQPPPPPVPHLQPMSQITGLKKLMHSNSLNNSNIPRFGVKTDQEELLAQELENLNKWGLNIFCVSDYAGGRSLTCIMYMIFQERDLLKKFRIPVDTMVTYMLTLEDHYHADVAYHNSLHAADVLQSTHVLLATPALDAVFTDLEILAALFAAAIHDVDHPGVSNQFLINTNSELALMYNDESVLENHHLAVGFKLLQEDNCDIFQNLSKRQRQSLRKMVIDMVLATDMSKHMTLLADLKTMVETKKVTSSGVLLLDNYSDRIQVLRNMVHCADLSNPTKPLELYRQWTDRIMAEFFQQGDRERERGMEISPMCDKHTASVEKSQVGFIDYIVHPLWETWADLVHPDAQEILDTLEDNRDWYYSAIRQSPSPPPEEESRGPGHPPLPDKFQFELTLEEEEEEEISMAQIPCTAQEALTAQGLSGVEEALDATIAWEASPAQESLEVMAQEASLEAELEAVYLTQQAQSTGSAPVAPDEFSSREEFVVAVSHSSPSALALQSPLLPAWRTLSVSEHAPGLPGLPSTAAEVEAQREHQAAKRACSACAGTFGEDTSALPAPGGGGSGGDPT
Protocol: (§1) […] The cells are then fixed with 4% formalin buffer (pH7) for 1 hour, washed with PBS and stained with 1 μM Hoechst 33258 in PBS for 10 minutes at 25° C., then washed twice in PBS. Automated images are collected and analysed for the number of spots per cell as described in Example 2.
as §1

SMILES: O=c1c2cccnc2n(-c2cccc([N+](=O)[O-])c2)c(=O)n1Cc1ccncc1 [RS25344]
- Removal of Rolipram-induced PDE4A4-spots (HSPDE4A4-EGFP): no
- IC50 (PDE4 [1]; literature values quoted in Example 5 (Saldou 1998; Ahluwalia 1982; Rubin 1991), read-out: IC50 against PDE4): 280 pM
- Inhibition of PDE4 catalytic activity (PDE4 [1]; yes/no): yes
- IC50 (PDE4 [2]): 280 pM
- redistribution of the PDE4A probes (PDE4A probes): indistinguishable from those induced by Rolipram treatment
- spot formation (in words) (HSPDE4A4catD-EGFP; 1 μM RS25344 32 hours, stably transfected, 10 μM Rolipram 26 hours, transiently transfected): Many cells in this stable population respond by forming pairs of bright spots
- time until spots begin to be visible (HSPDE4A4catD-EGFP; after addition of 1 μM RS25344): about 6 hours
- dispersal of PDE4A1 spots (in words) (HSPDE4A1-EGFP; Rolipram 2 micromolar 2 hours, others over the ranges tested): reduce PDE4A1 spot numbers
- EC50 (HSPDE4A1-EGFP; clonal CHO, 23.5 hours, estimated): 5000 pM
- Removal of PDE4A1 spots (HSPDE4A1-EGFP; yes/no): yes
